Common to all, as to assay: biochemical
For test [1], the target named is FLT3(ITD,D835V) (Homo sapiens, UniProt P36888, D835V/ITD). Details: DiscoverX kinase panel, active-site competition binding (KINOMEscan type), percent of control at one concentration. To be noted: competition binding, percent of control. The source says:
(§1) To investigate the potential therapeutic benefit of inhibiting RIP1, we developed GNE684 or (S)-N-((S)-7-methoxy-1-methyl-2-oxo-2,3,4,5-tetrahydro-1H-pyrido[3,4-b]azepin-3-yl)-5-phenyl-6,7-dihydro-5H-pyrrolo[1,2-b][1,2,4]triazole-2-carboxamide with cross-species potency against RIP1, exquisite kinase selectivity, and favorable pharmacological properties (Fig. 1a–h, S1, Tables S1 and S2, SI file 1). […] (Fig. 1b, S1, and Table S1). […] GNE684 inhibited human RIP1 potently in vitro, and mouse and rat RIP1 with slightly less potency (Fig. 1d). Accordingly, it inhibited TNF-induced necroptosis in human HT-29, mouse L929, or rat H9c2 cells (Fig. 1e). The cellular potency of GNE684 was confirmed in a human whole blood assay using TBZ (TNF, IAP antagonist BV6, and pan-caspase inhibitor zVAD) or LZ (LPS plus zVAD) to trigger necroptosis and the release of IL-1α and IL-1β (Fig. 1f).

In test [2] the target is LIMK1 (Homo sapiens, UniProt P53667). Also on record: DiscoverX kinase panel, active-site competition binding (KINOMEscan type), percent of control at one concentration. The conditions noted are these: competition binding, percent of control.
Text: as §1

Test [3] concerns the target T1, TRKC (Homo sapiens, UniProt Q16288).
T1 construct: gene NTRK3
Also on record: DiscoverX kinase panel, active-site competition binding (KINOMEscan type), percent of control at one concentration. To be noted: competition binding, percent of control.
Text: as §1

For test [4], the target named is GRK1 (Homo sapiens, UniProt Q15835). Also on record: DiscoverX kinase panel, active-site competition binding (KINOMEscan type), percent of control at one concentration. The conditions noted are these: competition binding, percent of control.
GRK1, sequence (Q15835 whole entry): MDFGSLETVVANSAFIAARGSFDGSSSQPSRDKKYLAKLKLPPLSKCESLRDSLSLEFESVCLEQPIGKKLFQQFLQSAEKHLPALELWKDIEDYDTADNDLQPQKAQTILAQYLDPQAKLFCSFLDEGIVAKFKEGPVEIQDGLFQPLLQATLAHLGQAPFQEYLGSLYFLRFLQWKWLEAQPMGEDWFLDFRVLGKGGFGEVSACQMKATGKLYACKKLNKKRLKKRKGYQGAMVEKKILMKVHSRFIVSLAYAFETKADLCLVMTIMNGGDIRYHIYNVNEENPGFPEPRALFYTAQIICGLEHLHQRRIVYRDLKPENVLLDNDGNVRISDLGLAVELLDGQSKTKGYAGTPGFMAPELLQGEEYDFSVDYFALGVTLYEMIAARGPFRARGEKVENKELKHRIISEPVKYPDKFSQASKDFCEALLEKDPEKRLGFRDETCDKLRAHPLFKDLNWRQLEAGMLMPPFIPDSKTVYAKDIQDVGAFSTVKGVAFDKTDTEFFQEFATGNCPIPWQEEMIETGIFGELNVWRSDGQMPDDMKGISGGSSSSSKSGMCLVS
Text: as §1

For test [5], the target named is KIT(A829P) (Homo sapiens, UniProt P10721, A829P). Details: DiscoverX kinase panel, active-site competition binding (KINOMEscan type), percent of control at one concentration. To be noted: competition binding, percent of control.
Text: as §1

Test [6] concerns the target PLK4 (Homo sapiens, UniProt O00444). Details: DiscoverX kinase panel, active-site competition binding (KINOMEscan type), percent of control at one concentration. The conditions noted are these: competition binding, percent of control.
Text: as §1

Test [7] has as its target FES (Homo sapiens, UniProt P07332). Details: DiscoverX kinase panel, active-site competition binding (KINOMEscan type), percent of control at one concentration. The conditions noted are these: competition binding, percent of control.
Text: as §1

Test [8] deals with T2, RSK3(Kin.Dom.2-C-terminal) (Homo sapiens, UniProt Q15349).
T2 construct: gene RPS6KA2; Kin.Dom.2-C-terminal
Also on record: DiscoverX kinase panel, active-site competition binding (KINOMEscan type), percent of control at one concentration. The conditions noted are these: competition binding, percent of control.
Text: as §1

Test [9] has as its target PIKFYVE (Homo sapiens, UniProt Q9Y2I7). Details: DiscoverX kinase panel, active-site competition binding (KINOMEscan type), percent of control at one concentration. To be noted: competition binding, percent of control.
Text: as §1

Test [10] addresses EPHB6 (Homo sapiens, UniProt O15197). Details: DiscoverX kinase panel, active-site competition binding (KINOMEscan type), percent of control at one concentration. The conditions noted are these: competition binding, percent of control.
Text: as §1

Test [11] deals with TAOK2 (Homo sapiens, UniProt Q9UL54). Also on record: DiscoverX kinase panel, active-site competition binding (KINOMEscan type), percent of control at one concentration. The conditions noted are these: competition binding, percent of control.
Text: as §1

Test [12] deals with T3, RSK4(Kin.Dom.2-C-terminal) (Homo sapiens, UniProt Q9UK32).
T3 construct: gene RPS6KA6; Kin.Dom.2-C-terminal
Also on record: DiscoverX kinase panel, active-site competition binding (KINOMEscan type), percent of control at one concentration. To be noted: competition binding, percent of control.
Text: as §1

The target in test [13] is EPHB4 (Homo sapiens, UniProt P54760). Details: DiscoverX kinase panel, active-site competition binding (KINOMEscan type), percent of control at one concentration. The conditions noted are these: competition binding, percent of control.
Text: as §1

Test [14] addresses CHEK2 (Homo sapiens, UniProt O96017). Details: DiscoverX kinase panel, active-site competition binding (KINOMEscan type), percent of control at one concentration. The conditions noted are these: competition binding, percent of control.
Text: as §1

The target of test [15] is T4, RPS6KA5(Kin.Dom.2-C-terminal) (Homo sapiens, UniProt O75582).
T4 construct: Kin.Dom.2-C-terminal
Also on record: DiscoverX kinase panel, active-site competition binding (KINOMEscan type), percent of control at one concentration. The conditions noted are these: competition binding, percent of control.
Text: as §1

The target in test [16] is T5, ERK4 (Homo sapiens, UniProt P31152).
T5 construct: gene MAPK4
Also on record: DiscoverX kinase panel, active-site competition binding (KINOMEscan type), percent of control at one concentration. To be noted: competition binding, percent of control.
Text: as §1

For test [17], the target named is IRAK4 (Homo sapiens, UniProt Q9NWZ3). Also on record: DiscoverX kinase panel, active-site competition binding (KINOMEscan type), percent of control at one concentration. To be noted: competition binding, percent of control.
Text: as §1

Test [18] has as its target ZAP70 (Homo sapiens, UniProt P43403). Details: gene ZAP70; Thermo Fisher SelectScreen kinase panel: Z'-LYTE and Adapta activity, LanthaScreen binding. The protocol: 5 88 GNE684 was tested in Thermo Fisher Scientific SelectScreen assay (Madison, WI) 89 against 221 representative kinases at a concentration of 10 µM, which is 476-fold greater than the Ki app 90 for GNE684 against human RIP1 in the RIP1 enzyme 91 assay. The kinase assays were carried out using Z'-LYTE and Adapta activity and 92 LanthaScreen binding assays (Thermo Fisher Scientific, Madison WI) following 93 protocols developed and performed by Thermo Fisher Scientific 94 (https://www.thermofisher.com/us/en/home/products-and-services/services/custom-95 services/screening-and-profiling-services/selectscreen-profiling-service/selectscreen-96 kinase-profiling-service.html). 97 GNE684 was also tested against 468 kinases in the KINOMEscan scanMAX kinase 98 binding assay panel at a concentration of 10 µM following protocols developed and 99 performed by DiscoverX (http://www.discoverx.com/kinase_profiling).

PIKFYVE, sequence (Q9Y2I7 whole entry): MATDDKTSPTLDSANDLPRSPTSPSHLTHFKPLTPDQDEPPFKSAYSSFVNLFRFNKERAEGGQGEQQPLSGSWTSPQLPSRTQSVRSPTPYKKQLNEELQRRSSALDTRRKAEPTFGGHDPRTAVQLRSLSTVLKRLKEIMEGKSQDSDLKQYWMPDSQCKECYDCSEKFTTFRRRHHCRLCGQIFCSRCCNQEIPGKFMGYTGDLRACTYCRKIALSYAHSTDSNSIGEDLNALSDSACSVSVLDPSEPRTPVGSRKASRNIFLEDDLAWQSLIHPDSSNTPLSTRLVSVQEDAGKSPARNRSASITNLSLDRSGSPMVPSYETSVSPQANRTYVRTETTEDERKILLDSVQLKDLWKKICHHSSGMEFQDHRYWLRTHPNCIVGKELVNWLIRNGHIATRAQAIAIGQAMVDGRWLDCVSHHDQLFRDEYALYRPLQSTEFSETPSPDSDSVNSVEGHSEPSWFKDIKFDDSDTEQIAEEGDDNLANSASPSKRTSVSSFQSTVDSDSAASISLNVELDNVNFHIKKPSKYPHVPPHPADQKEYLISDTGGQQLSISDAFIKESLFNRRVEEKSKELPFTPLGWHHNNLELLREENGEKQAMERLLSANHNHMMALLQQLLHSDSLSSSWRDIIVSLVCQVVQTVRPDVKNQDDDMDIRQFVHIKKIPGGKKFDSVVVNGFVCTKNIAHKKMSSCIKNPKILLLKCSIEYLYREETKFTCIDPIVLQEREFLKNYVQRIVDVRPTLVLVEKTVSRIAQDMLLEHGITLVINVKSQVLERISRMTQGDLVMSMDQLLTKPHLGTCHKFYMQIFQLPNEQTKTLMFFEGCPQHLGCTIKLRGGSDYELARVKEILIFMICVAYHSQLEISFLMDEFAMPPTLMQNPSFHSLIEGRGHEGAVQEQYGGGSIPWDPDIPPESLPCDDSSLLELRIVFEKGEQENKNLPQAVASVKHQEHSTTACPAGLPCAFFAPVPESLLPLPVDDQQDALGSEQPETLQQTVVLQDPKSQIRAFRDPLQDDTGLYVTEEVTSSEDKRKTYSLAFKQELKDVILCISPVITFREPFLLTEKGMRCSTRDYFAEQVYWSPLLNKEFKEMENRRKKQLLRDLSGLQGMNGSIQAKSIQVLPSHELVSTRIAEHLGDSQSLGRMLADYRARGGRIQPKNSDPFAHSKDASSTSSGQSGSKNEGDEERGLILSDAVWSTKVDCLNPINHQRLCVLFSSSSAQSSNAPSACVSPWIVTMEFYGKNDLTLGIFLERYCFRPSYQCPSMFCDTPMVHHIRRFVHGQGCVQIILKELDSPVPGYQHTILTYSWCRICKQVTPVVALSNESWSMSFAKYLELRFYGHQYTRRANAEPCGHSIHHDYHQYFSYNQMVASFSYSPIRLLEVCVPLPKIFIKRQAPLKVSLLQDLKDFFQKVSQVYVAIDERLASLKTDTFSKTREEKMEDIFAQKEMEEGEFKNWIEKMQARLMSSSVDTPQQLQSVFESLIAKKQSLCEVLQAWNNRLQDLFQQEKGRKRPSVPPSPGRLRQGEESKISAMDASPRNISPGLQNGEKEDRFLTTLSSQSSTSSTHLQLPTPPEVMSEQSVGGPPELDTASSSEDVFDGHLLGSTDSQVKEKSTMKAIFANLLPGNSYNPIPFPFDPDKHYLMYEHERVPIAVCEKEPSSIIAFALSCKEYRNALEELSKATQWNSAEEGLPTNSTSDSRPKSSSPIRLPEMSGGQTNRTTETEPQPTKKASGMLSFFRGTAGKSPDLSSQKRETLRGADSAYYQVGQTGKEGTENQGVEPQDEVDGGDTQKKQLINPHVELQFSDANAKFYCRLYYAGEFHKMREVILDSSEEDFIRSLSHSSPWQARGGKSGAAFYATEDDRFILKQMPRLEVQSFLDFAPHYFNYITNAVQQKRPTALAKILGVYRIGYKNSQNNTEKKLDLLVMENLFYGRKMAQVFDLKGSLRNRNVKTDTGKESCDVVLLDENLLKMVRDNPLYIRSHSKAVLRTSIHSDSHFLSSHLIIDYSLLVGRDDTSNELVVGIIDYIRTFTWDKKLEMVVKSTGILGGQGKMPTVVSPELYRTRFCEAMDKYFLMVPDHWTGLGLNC
T1 sequence (Q16288 whole entry): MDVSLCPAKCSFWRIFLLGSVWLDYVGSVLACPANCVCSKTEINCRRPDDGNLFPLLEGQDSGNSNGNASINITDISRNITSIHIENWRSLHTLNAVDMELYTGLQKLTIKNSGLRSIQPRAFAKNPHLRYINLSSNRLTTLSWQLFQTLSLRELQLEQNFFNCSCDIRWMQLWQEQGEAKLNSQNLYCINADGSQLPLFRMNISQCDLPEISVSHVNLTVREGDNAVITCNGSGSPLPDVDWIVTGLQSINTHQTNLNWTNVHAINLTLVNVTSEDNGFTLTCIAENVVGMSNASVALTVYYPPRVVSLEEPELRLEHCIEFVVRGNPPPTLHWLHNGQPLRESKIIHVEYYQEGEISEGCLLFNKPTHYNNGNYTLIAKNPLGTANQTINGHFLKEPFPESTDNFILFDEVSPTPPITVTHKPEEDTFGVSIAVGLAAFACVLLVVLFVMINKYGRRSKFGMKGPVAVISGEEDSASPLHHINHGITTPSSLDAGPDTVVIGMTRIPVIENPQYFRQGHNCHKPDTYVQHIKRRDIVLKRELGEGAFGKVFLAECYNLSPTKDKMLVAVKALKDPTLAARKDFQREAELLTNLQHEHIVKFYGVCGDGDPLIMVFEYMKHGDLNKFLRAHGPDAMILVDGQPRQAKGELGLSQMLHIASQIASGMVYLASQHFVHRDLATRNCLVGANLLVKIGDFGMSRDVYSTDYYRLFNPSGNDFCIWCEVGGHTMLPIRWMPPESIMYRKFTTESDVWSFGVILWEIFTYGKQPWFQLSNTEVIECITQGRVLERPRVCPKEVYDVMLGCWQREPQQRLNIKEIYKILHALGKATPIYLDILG
PLK4, sequence (O00444 whole entry): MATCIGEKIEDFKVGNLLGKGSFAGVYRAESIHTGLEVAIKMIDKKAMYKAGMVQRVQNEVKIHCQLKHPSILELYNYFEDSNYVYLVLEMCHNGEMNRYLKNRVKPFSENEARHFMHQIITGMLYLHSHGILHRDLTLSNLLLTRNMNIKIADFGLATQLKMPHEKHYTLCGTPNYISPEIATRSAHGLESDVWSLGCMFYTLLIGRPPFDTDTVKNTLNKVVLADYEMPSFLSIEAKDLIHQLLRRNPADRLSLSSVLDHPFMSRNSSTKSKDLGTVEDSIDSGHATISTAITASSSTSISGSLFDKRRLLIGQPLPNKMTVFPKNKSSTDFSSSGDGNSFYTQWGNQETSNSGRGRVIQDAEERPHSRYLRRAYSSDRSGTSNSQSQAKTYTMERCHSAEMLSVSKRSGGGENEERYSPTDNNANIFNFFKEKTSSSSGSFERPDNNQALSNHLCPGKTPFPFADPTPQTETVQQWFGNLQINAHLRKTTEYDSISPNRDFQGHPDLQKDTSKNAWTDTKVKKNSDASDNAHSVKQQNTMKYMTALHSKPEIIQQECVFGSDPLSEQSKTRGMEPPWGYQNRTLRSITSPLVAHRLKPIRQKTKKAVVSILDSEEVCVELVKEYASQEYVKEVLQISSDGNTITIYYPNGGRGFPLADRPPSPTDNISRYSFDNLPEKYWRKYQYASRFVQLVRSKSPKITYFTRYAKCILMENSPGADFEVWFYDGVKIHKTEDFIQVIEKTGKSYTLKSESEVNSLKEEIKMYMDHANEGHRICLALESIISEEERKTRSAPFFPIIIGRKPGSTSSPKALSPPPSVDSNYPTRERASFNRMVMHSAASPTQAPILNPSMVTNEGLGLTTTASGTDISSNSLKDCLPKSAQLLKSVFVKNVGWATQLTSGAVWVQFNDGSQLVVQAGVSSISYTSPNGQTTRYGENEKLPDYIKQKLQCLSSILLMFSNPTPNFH
CHEK2, sequence (O96017 whole entry): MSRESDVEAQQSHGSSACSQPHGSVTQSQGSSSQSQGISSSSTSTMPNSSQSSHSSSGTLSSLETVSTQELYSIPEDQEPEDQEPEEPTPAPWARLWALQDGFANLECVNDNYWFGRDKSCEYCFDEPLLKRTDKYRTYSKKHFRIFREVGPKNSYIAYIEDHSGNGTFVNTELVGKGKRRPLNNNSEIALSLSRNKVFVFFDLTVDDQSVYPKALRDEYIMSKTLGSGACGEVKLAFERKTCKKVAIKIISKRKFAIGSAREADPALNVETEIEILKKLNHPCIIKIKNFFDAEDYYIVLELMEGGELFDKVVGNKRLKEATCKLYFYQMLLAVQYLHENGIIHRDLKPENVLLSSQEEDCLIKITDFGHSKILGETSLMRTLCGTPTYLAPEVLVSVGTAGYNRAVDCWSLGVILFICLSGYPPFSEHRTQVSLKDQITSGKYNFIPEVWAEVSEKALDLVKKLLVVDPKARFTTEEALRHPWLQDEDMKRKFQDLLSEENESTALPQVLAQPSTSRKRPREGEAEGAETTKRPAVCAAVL

By inhibition is commonly meant the relative decrease from the control value, in per cent. Turning to `COc1cc2c(cn1)N(C)C(=O)[C@@H](NC(=O)c1nc3n(n1)[C@H](c1ccccc1)CC3)CC2` [GNE684, (S)-N-((S)-7-methoxy-1-methyl-2-oxo-2,3,4,5-tetrahydro-1H-pyrido[3,4-b]azepin-3-yl)-5-phenyl-6,7-dihydro-5H-pyrrolo[1,2-b][1,2,4]triazole-2-carboxamide], the remaining binding at 10 µM in test [1] stood at 84%; in [2], 96%; in test [3], 69%; in test [4], 67%; in test [5], 100%; in [6], 95%. For the same compound, the remaining binding at 10 µM in test [7] amounted to 100%; in [8], 98%; in test [9] it was 100%; in test [10], 100%; in [11], 92%; in test [12] it was 95%. Besides, the remaining binding at 10 µM was 100% in test [13]; 100% in test [14]; 100% in [15]; 96% in test [16]; 100% in [17]. The compound further showed an inhibition at 10 µM in test [18] of 1%.

Source of the values: paper PMC7206119, “RIP1 inhibition blocks inflammatory diseases but not tumor growth or metastases” (Cell Death and Differentiation, 2019).
